Laboratory results reported in paper PMC4965013, “Open Source Drug Discovery with the Malaria Box Compound Collection for Neglected Diseases and Beyond” (PLoS Pathogens, 2016).

What was measured:
P. falciparum = assay: EC50 listed in S2 Table Metabolomics (used to set the concentration tested); assay type: cell-based; settings: Plasmodium falciparum; EC50 used for Factor_XEC50 in metabolomics; read-out: EC50_nM
[1] = test system: P. falciparum 3D7 trophozoites; assay: Metabolomic fingerprint profiling LC-MS; assay type: cell-based, Plasmodium falciparum; parameters: UDP-D-glucose / ADP-D-glucose: unit not given here; settings: for Acetyllysine / N-acetyl-L-ornithine / N-carbamoyl-L-aspartate / NADPH / dAMP / dCMP / dTDP / dTMP / dTTP / dihydroorotate / orotate / DLH / DLS/SDL/SID / PD / PEE / PVNF / 3-phosphoglycerate / ADP-D-glucose / ATP / CDP / D-sedoheptulose-1/7-phosphate / FAD / GMP / NAD+ / NADP+ / Octoluse Bisphosphate / Pyroglutamic acid / UDP-D-glucose / UDP-D-glucuronate / UDP-N-acetyl-glucosamine / UDP / UMP / UTP / a-ketoglutarate / citrate/isocitrate / cytidine / dATP / dGMP/AMP / fumarate / glucose-1/6-phosphate / glycerate / guanine / guanosine / hypoxanthine / indole / inosine / nicotinate / ornithine / phosphoenolpyruvate / pyruvate / ribose-phosphate / sarcosine/alanine / sn-glycerol-3-phosphate / succinate/methylmalonic acid / uridine / xanthosine: S2 Table Metabolomics; for Acetyllysine: metabolite Acetyllysine; for N-acetyl-L-ornithine: metabolite N-acetyl-L-ornithine; for N-carbamoyl-L-aspartate: metabolite N-carbamoyl-L-aspartate; for NADPH: metabolite NADPH; for dAMP: metabolite dAMP; for dCMP: metabolite dCMP; for dTDP: metabolite dTDP; for dTMP: metabolite dTMP; for dTTP: metabolite dTTP; for dihydroorotate: metabolite dihydroorotate; for orotate: metabolite orotate; for DLH: peptide DLH; for DLS/SDL/SID: peptide DLS/SDL/SID; for PD: peptide PD; for PEE: peptide PEE; for PVNF: peptide PVNF; for 3-phosphoglycerate: metabolite 3-phosphoglycerate; for ADP-D-glucose: metabolite ADP-D-glucose; for ATP: metabolite ATP; for CDP: metabolite CDP; for CDP / D-sedoheptulose-1/7-phosphate / GMP / Octoluse Bisphosphate / UDP / UMP / UTP / citrate/isocitrate / dGMP/AMP / fumarate / glucose-1/6-phosphate / glycerate / guanine / guanosine / inosine / pyruvate / sarcosine/alanine / succinate/methylmalonic acid / uridine / xanthosine: change in metabolite level after compound treatment; for D-sedoheptulose-1/7-phosphate: metabolite D-sedoheptulose-1/7-phosphate; for FAD: metabolite FAD; for GMP: metabolite GMP; for NAD+: metabolite NAD+; for NADP+: metabolite NADP+; for Octoluse Bisphosphate: metabolite Octoluse Bisphosphate; for Pyroglutamic acid: metabolite Pyroglutamic acid; for UDP-D-glucose: metabolite UDP-D-glucose; for UDP-D-glucuronate: metabolite UDP-D-glucuronate; for UDP-N-acetyl-glucosamine: metabolite UDP-N-acetyl-glucosamine; for UDP: metabolite UDP; for UMP: metabolite UMP; for UTP: metabolite UTP; for a-ketoglutarate: metabolite a-ketoglutarate; for citrate/isocitrate: metabolite citrate/isocitrate; for cytidine: metabolite cytidine; for dATP: metabolite dATP; for dGMP/AMP: metabolite dGMP/AMP; for fumarate: metabolite fumarate; for glucose-1/6-phosphate: metabolite glucose-1/6-phosphate; for glycerate: metabolite glycerate; for guanine: metabolite guanine; for guanosine: metabolite guanosine; for hypoxanthine: metabolite hypoxanthine; for indole: metabolite indole; for inosine: metabolite inosine; for 2_3-Diphosphoglyceric acid / 4-phosphopantothenate / 6-phospho-D-gluconate / FMN / IMP / Pyrophosphate / Sedoheptoluse bisphosphate / cyclic-AMP / glutathione disulfide / lactate / myo-inositol: metabolite level change after treatment; for nicotinate: metabolite nicotinate; for ornithine: metabolite ornithine; for phosphoenolpyruvate: metabolite phosphoenolpyruvate; for pyruvate: metabolite pyruvate; for ribose-phosphate: metabolite ribose-phosphate; for sarcosine/alanine: metabolite sarcosine/alanine; for sn-glycerol-3-phosphate: metabolite sn-glycerol-3-phosphate; for succinate/methylmalonic acid: metabolite succinate/methylmalonic acid; for uridine: metabolite uridine; for xanthosine: metabolite xanthosine

CC(C)(C)c1ccc(O)c(CNC2CCCCC2)c1 [MMV665785]
EC50 (P. falciparum): 161 nM
Acetyllysine [1]: -3.15
N-acetyl-L-ornithine [1]: -2.311
N-carbamoyl-L-aspartate [1]: -1.546
NADPH [1]: 0.984
dAMP [1]: -0.2403
dCMP [1]: -0.2349
dTDP [1]: -0.5512
dTMP [1]: -0.26
dTTP [1]: 0.1164
dihydroorotate [1]: -0.9762
orotate [1]: -1.456
DLH [1]: -3.579
DLS/SDL/SID [1]: -3.002
PD [1]: -3.491
PEE [1]: -3.582
PVNF [1]: -4.043
3-phosphoglycerate [1]: 0.5402
ADP-D-glucose [1]: -0.1351
ATP [1]: 0.1038
CDP [1]: 0.1776
D-sedoheptulose-1/7-phosphate [1]: 0.09578
FAD [1]: 0.3792
GMP [1]: -0.7077
NAD+ [1]: 1.206
NADP+ [1]: 0.3365
Octoluse Bisphosphate [1]: 0.02588
Pyroglutamic acid [1]: -0.2254
UDP-D-glucose [1]: 0.3073
UDP-D-glucuronate [1]: 0.153
UDP-N-acetyl-glucosamine [1]: 0.3019
UDP [1]: -0.1861
UMP [1]: -0.1897
UTP [1]: -0.0004267
a-ketoglutarate [1]: -1.327
citrate/isocitrate [1]: -0.9862
cytidine [1]: 0.6078
dATP [1]: 0.1738
dGMP/AMP [1]: -0.2591
fumarate [1]: -2.071
glucose-1/6-phosphate [1]: 0.2752
glycerate [1]: -0.524
guanine [1]: -0.6198
guanosine [1]: -0.8871
hypoxanthine [1]: -0.2777
indole [1]: -0.4001
inosine [1]: -0.2517
2_3-Diphosphoglyceric acid [1]: 0.5476
4-phosphopantothenate [1]: -0.1524
6-phospho-D-gluconate [1]: 0.3686
FMN [1]: 0.4685
IMP [1]: 0.07164
Pyrophosphate [1]: 0.2456
Sedoheptoluse bisphosphate [1]: 0.06348
cyclic-AMP [1]: -0.9854
glutathione disulfide [1]: -0.1571
lactate [1]: -0.3018
myo-inositol [1]: 0.3826
nicotinate [1]: -0.1953
ornithine [1]: -0.1957
phosphoenolpyruvate [1]: 0.4685
pyruvate [1]: -0.3246
ribose-phosphate [1]: -0.2844
sarcosine/alanine [1]: -1.431
sn-glycerol-3-phosphate [1]: -0.03786
succinate/methylmalonic acid [1]: -0.9733
uridine [1]: -0.6886
xanthosine [1]: -1.575

Fc1ccc2[nH]c3c(NCCCN4CCOCC4)ncnc3c2c1 [MMV019871]
EC50 (P. falciparum): 345 nM
Acetyllysine [1]: -0.8876
N-acetyl-L-ornithine [1]: -0.1209
N-carbamoyl-L-aspartate [1]: 0.08503
NADPH [1]: 0.6093
dAMP [1]: 0.6696
dCMP [1]: -0.1368
dTDP [1]: 0.799
dTMP [1]: 0.8196
dTTP [1]: 0.3182
dihydroorotate [1]: 0.6163
orotate [1]: 0.06699
DLH [1]: -1.437
DLS/SDL/SID [1]: -0.7695
PD [1]: -0.933
PEE [1]: -0.4641
PVNF [1]: -1.358
3-phosphoglycerate [1]: -0.4045
ADP-D-glucose [1]: -0.2501
ATP [1]: -0.2422
CDP [1]: 0.8712
D-sedoheptulose-1/7-phosphate [1]: 0.6203
FAD [1]: -0.1788
GMP [1]: 0.008366
NAD+ [1]: -0.1288
NADP+ [1]: -0.2271
Octoluse Bisphosphate [1]: -0.5075
Pyroglutamic acid [1]: 0.06535
UDP-D-glucose [1]: -0.1274
UDP-D-glucuronate [1]: -0.1958
UDP-N-acetyl-glucosamine [1]: -0.09954
UDP [1]: 0.8844
UMP [1]: -0.5999
UTP [1]: -0.2069
a-ketoglutarate [1]: -0.1645
citrate/isocitrate [1]: -0.2521
cytidine [1]: -0.343
dATP [1]: -0.2053
dGMP/AMP [1]: 0.4546
fumarate [1]: -0.6533
glucose-1/6-phosphate [1]: -0.1277
glycerate [1]: -0.2409
guanine [1]: 0.2236
guanosine [1]: 0.1132
hypoxanthine [1]: 0.02159
indole [1]: -0.3008
inosine [1]: 0.02443
2_3-Diphosphoglyceric acid [1]: -0.241
4-phosphopantothenate [1]: -0.03538
6-phospho-D-gluconate [1]: -0.1618
FMN [1]: 0.07605
IMP [1]: 0.1512
Pyrophosphate [1]: -0.1841
Sedoheptoluse bisphosphate [1]: -0.3231
cyclic-AMP [1]: -0.2059
glutathione disulfide [1]: -0.2521
lactate [1]: 0.01945
myo-inositol [1]: 0.08413
nicotinate [1]: 0.1601
ornithine [1]: 0.04638
phosphoenolpyruvate [1]: -0.3024
pyruvate [1]: 0.2194
ribose-phosphate [1]: -0.9686
sarcosine/alanine [1]: -0.2747
sn-glycerol-3-phosphate [1]: -0.2288
succinate/methylmalonic acid [1]: -0.1938
uridine [1]: 0.09395
xanthosine [1]: -0.4756
